Experimental data from patent publication US7569724B2, “Carbamic acid compounds comprising an amide linkage as HDAC inhibitors” (Topotarget UK Limited, priority 2000, dated 2009).
Structures can show the parent of a compound that is named as a salt. Where two headings read alike, the source gives them in different places.

Assays:
HDAC (HeLa cell extract) = assay: Primary assay: deacetylase activity, HeLa cell extract as source of HDAC; assay type: biochemical, human; settings: HeLa cell extract
Text: Briefly, this assay relies on the release of radioactive acetate from a radioactively labelled histone fragment by the action of HDAC enzyme. Test compounds, which inhibit HDAC, reduce the yield of radioactive acetate. Signal (e.g., scintillation counts) measured in the presence and absence of a test compound provide an indication of that compound's ability to inhibit HDAC activity. Decreased activity indicates increased inhibition by the test compound.
The histone fragment was an N-terminal sequence from histone H4, and it was labelled with radioactively labelled acetyl groups using tritiated acetylcoenzyme A (coA) in conjunction with an enzyme which is the histone acetyltransferase domain of the transcriptional coactivator p300. […] The acetylated peptide was then separated from free acetyl coA by size exclusion chromatography on Sephadex G-15 (Sigma G-15-120), using distilled H2O as the mobile phase.
After purification of the radiolabelled histone fragment, it was incubated with a source of HDAC (e.g., an extract of HeLa cells (a rich source of HDAC), recombinantly produced HDAC1 or HDAC2) and any released acetate was extracted into an organic phase and quantitatively determined using scintillation counting. By including a test compound with the source of HDAC, that compound's ability to inhibit the HDAC was determined.
The HeLa cell extract was made from HeLa cells (ATCC Ref. No. CCL-2) by freeze-thawing three times in 60 mM TrisCl pH 8.0, 450 mM NaCl, 30% glycerol. Two cell volumes of extraction buffer were used, and particulate material was centrifuged out (20800 g, 4° C., 10 min). The supernatant extract having deacetylase activity was aliquotted and frozen for storage.
A source of HDAC (e.g., 2 μL of crude HeLa extract, 5 μL of HDAC1 or HDAC2; in elution buffer, as above) was incubated with 3 μL of radioactively labelled peptide along with appropriate dilutions of candidate compounds (1.5 μL) in a total volume of 150 μL of buffer (20 mM Tris pH 7.4, 10% glycerol). The reaction was carried out at 37° C. for one hour, after which the reaction was stopped by adding 20 μL of 1 M HCl/0.4 M sodium acetate. […] Radioactivity was measured using a Tri-Carb 2100TR Liquid Scintillation Analyzer (Packard).
Percent activity (% activity) for each test compound was calculated as: % activity={(S^C−B)/(S^o−B)}×100 wherein S^C denotes signal measured in the presence of enzyme and the compound being tested, S^o denotes signal measured in the presence of enzyme but in the absence of the compound being tested, and B denotes the background signal measured in the absence of both enzyme and compound being tested.

HeLa cells = assay: Secondary assay: cell proliferation WST-1, HeLa; assay type: cell-based; settings: Homo sapiens, 48 h, read-out: Cell Proliferation Inhibition WST-1 (IC50 unless otherwise specified) HeLa
Description: Compounds with HDAC inhibition activity, as determined using the primary assay, were subsequently evaluated using secondary cell-based assays. The following cell lines were used:
HeLa—Human cervical adenocarcinoma cell line (ATCC ref. No. CCL-2).
Cells were plated in 96-well plates at 3-10×10^3 cells/well in 100 μL of culture medium. The following day, different concentrations of candidate compounds were added and the cells incubated at 37° C. for 48 h. Subsequently, 10 μL/well of WST-1 reagent was added and the cells reincubated for 1 hour. After the incubation time, absorbance was measured.
WST-1 is a tetrazolium salt which is cleaved to formazan dye by cellular enzymes. An expansion in the number of viable cells results in an increase in the overall activity of mitochondrial dehydrogenases in the sample. This augmentation in the enzyme activity leads to an increase in the amount of formazan dye formed, which directly correlates to the number of metabolically active cells in the culture. The formazan dye produced is quantified by a scanning multiwell spectrophotometer by measuring the absorbance of the dye solution at 450 nm wavelength (reference wavelength 690 nm).
Percent activity (% activity) in reducing the number of viable cells was calculated for each test compound as: % activity={(S^C−B)/(S^o−B)}×100 wherein S^C denotes signal measured in the presence of the compound being tested, S^o denotes signal measured in the absence of the compound being tested, and B denotes the background signal measured in blank wells containing medium only.
IC50 values were calculated using the software package Prism 3.0 (GraphPad software Inc., San Diego, Calif.), setting top value at 100 and bottom value at 0.

[1] = read-out: HDAC Inhibition (IC50 unless otherwise specified) HeLa
[2] = comparative tables, no unit in cell, read-out: HeLa IC50
[3] = comparative tables, read-out: HeLa IC50

Structure (SMILES)	HDAC Inhibition HeLa, percent (HDAC (HeLa cell extract); @ 1 μM) [% @ 1 μM]	HDAC Inhibition HeLa, percent (HDAC (HeLa cell extract); @ 500 nM) [% @ 500 nM]	also measured
CN(C)c1ccc(CC(=O)NCCCC(=O)NO)cc1 [PX082532, 4-(2-(4-Dimethylamino-phenyl)-acetylamino)-N-hydroxy-butyramide]	21		
CN(C)c1ccc(C(=O)NCCCC(=O)NO)c2ccccc12 [PX082533]	2		percent HDAC inhibition at the stated concentration (HDAC (HeLa cell extract); comparative tables, @ 1 μM): 2% @ 1 μM
COc1ccc(NC(=O)CCCC(=O)NO)cc1 [PX082546, Pentanedioic acid hydroxyamide (4-methoxy-phenyl)-amide]	36		
CC(C)c1ccc(NC(=O)CCCC(=O)NO)cc1 [PX082548, Pentanedioic acid hydroxyamide (4-isopropyl-phenyl)-amide]	41		
COc1ccc(NC(=O)CCCC(=O)NO)cc1OC [PX082549, Pentanedioic acid (3,4-dimethoxy-phenyl)-amide hydroxyamide]	43		
CN(C)c1ccc(/C=C/C(=O)NCCCC(=O)NO)cc1 [PX083447, 4-(3-(4-Dimethylamino-phenyl)-acryoylamino)-N-hydroxy-butyramide]	15		
O=C(/C=C/C=C/c1ccccc1)NCCC(=O)NO [PX083448]			IC50 (HDAC (HeLa cell extract); [1]): > 1000 nM; IC50 (HDAC (HeLa cell extract); [2]): > 1000 nM
O=C(/C=C/c1ccc([N+](=O)[O-])cc1)NCCCC(=O)NO [PX083803, N-Hydroxy-4-(3-4-(nitro-phenyl)-acryoylamino)-butyramide]	15		
O=C(/C=C/c1ccc(C(F)(F)F)cc1)NCCCC(=O)NO [PX083804, N-Hydroxy-4-(3-4-(trifluoromethyl-phenyl)-acryoylamino)-butyramide]	14		
O=C(/C=C/c1ccccc1)NCCC(=O)NO [PX083806]	19		
O=C(/C=C/c1ccc([N+](=O)[O-])cc1)NCCC(=O)NO [PX083807, N-(2-Hydroxycarbamoyl-ethyl)-3-(4-nitro-phenyl)-acryamide]	9		
O=C(/C=C/C=C/c1ccccc1)NCCCC(=O)NO [PX083808]			IC50 (HDAC (HeLa cell extract); [1]): 20000 nM; IC50 (HDAC (HeLa cell extract); [2]): > 20000 nM
COc1ccc(C(=O)NCCCCC(=O)NO)cc1 [PX089048, N-(4-Hydroxycarbamoyl-butyl)-4-methoxy-benzamide]	34		
O=C(CCCCNC(=O)c1ccccc1)NO [PX089049, N-(4-Hydroxycarbamoyl-butyl)-benzamide]			IC50 (HDAC (HeLa cell extract); [1]): > 1000 nM
CN(C)c1ccc(C(=O)NCCCCCC(=O)NO)cc1 [PX089274, 4-Dimethylamino-N-(5-hydroxycarbamoyl-pentyl)-benzamide]			IC50 (HDAC (HeLa cell extract); [1]): 109 nM; IC50 (HDAC (HeLa cell extract); [3]): 110 nM; IC50 (HeLa cells): 4400 nM
O=C(/C=C/c1ccc(C(F)(F)F)cc1)NCCC(=O)NO [PX089283, N-(2-Hydroxycarbamoyl-ethyl)-3-(4-trifluoromethyl-phenyl)-acryamide]	21		
O=C(CC(=O)NCCc1ccccc1)NO [PX099268]			HDAC Inhibition HeLa, percent (HDAC (HeLa cell extract); @ 10 μM): 18% @ 10 μM
CN(C)c1ccc(C=CC(=O)NCCCCCC(=O)NO)cc1 [PX105533]			IC50 (HDAC (HeLa cell extract); [2]): 18 nM
CN(CCCC(=O)NO)C(=O)/C=C/C=C/c1ccccc1 [PX105668]			IC50 (HDAC (HeLa cell extract); [1]): > 10000 nM

Structure (SMILES)	HDAC Inhibition HeLa, percent (HDAC (HeLa cell extract); @ 1 μM) [% @ 1 μM]	HDAC Inhibition HeLa, percent (HDAC (HeLa cell extract); @ 500 nM) [% @ 500 nM]	also measured
COc1ccc(/C=C/C=C/C(=O)NCCCC(=O)NO)cc1 [PX105670]	29		
O=C(/C=C/C=C/c1ccc(Br)cc1)NCCCC(=O)NO [PX105816, (2E)(4E)-5-(4-Bromophenyl)penta-2,4-dienoic acid (3-hydroxycarbamoylpropyl)amide]		20	
O=C(/C=C/C=C/c1ccccc1)NCCCCC(=O)NO [PX105832, (2E)(4E)-5-Phenylpenta-2,4-dienoic acid (4-hydroxycarbamoyl-butyl)amide]			IC50 (HDAC (HeLa cell extract); [1]): 438 nM; IC50 (HDAC (HeLa cell extract); [2]): 438 nM
O=C(/C=C/C=C/c1ccc(Cl)cc1)NCCCC(=O)NO [PX105845, (2E)(4E)-5-(4-Chlorophenyl)-penta-2,4-dienoic acid (3-hydroxycarbamoylpropyl)-amide]		22	
O=C(/C=C\C=C\c1ccc(Br)cc1)NCCCC(=O)NO [PX105846, (2Z)(4E)-5-(4-Bromophenyl)penta-2,4-dienoic acid (3-hydroxycarbamoyl-propyl)amide]		46	
O=C(/C=C/c1ccccc1)NCCCCCC(=O)NO [PX106517, N-(5-Hydroxycarbamoylpentyl)-3-phenylacrylamide]			IC50 (HDAC (HeLa cell extract); [1]): 83 nM; IC50 (HDAC (HeLa cell extract); [3]): 83 nM; IC50 (HeLa cells): 470 nM
Nc1nonc1C(=O)NCCCCCC(=O)NO [PX106519, 4-Aminofurazan-3-carboxylic acid (5-hydroxycarbamoylpentyl)amide]		46	
O=C(/C=C/c1ccncc1)NCCCCCC(=O)NO [PX106521, (E)-N-(5-Hydroxycarbamoylpentyl)-3-pyridin-4-yl-acrylamide oxalate]			IC50 (HDAC (HeLa cell extract); [1]): 138 nM; IC50 (HeLa cells): 46000 nM
CC(/C=C/c1ccccc1)=C\C(=O)NCCCCCC(=O)NO [PX106526, (2E,4E)-3-Methyl-5-phenylpenta-2,4-dienoic acid (5-hydroxycarbamoylpentyl)-amide]			IC50 (HeLa cells): 2100 nM
O=C(/C=C/c1ccccn1)NCCCCCC(=O)NO [PX106528, (E)-N-(5-Hydroxycarbamoylpentyl)-3-pyridin-2-yl-acrylamide oxalate]		67	
O=C(CCCCCNC(=O)CCCc1ccccc1)NO [PX116210, N-Hydroxy-6-[(4-phenylbutanoyl)amino]hexanamide]		19	
O=C(CCCCCNC(=O)c1ccoc1)NO [PX116219, Furan-3-carboxylic acid (5-hydroxycarbamoyl-pentyl)-amide]		26	
O=C(/C=C/C=C/c1ccco1)NCCCCCC(=O)NO [PX116230]			HDAC Inhibition (IC50 unless otherwise specified) HeLa (HDAC (HeLa cell extract)): insoluble
O=C(/C=C/c1cccnc1)NCCCCCC(=O)NO [PX116231, E-N-(5-Hydroxycarbamoyl-pentyl)-3-pyridin-3-yl-acrylamide oxalate]		51	
O=C(CCCCCCC(=O)NCCc1nc2ccccc2[nH]1)NO [PX116241, N^1-[2-(1H-Benzimidazol-2-yl)ethyl]-N^8-hydroxyoctanediamide]		39	IC50 (HeLa cells): 56000 nM
O=C(/C=C/c1ccc(NC(=O)c2ccc3ccccc3c2)cc1)NO [PX116246, Naphthalene-2-carboxylic acid [4-(2-hydroxycarbamoyl-vinyl)-phenyl]-amide]		52	
O=C(/C=C/c1ccc(NC(=O)c2ccccc2)cc1)NO [PX117231, N-[4-(2-Hydroxycarbamoyl-vinyl)-phenyl]-benzamide]		72	percent HDAC inhibition at the stated concentration (HDAC (HeLa cell extract); comparative tables, @ 1 μM): 72% @ 1 μM
O=C(CCc1ccc(NC(=O)c2ccccc2)cc1)NO [PX117232, N-[4-(2-Hydroxycarbamoyl-ethyl)-phenyl]-benzamide]		43	percent HDAC inhibition at the stated concentration (HDAC (HeLa cell extract); comparative tables, @ 1 μM): 43% @ 1 μM
O=C(CCCCCCC(=O)Nc1ccccc1)NO [SAHA, Suberoylanilide Hydroxamic Acid, reference compound]			IC50 (HeLa cells): 2200 nM
